The values below come from ChEMBL document CHEMBL1201862, “PubChem BioAssay data set” (2004).

Structures are written as SMILES.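 Each compound was tested at five concentrations against cells in 96-well plates for 48 hours. GI50 = concentration required for 50% inhibition of growth.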 Calls of active or inactive are those of the source. Rule as the data show it: active = GI50 up to about 1.1 µM and inactive = higher.

Among the test systems are NCI-H23; SW-620; NCI-H522; CCRF-CEM; CAKI-1; COLO 205; ACHN; LOX IMVI; HT-29; EKVX; SK-OV-3; HL-60; Malme-3M; SF-268; K562; KM12; A549; HCC 2998; UO-31; NCI-H460.
Assay in all cases: growth of human tumour cells (NCI), 48 h

In the case of `CCCc1cc(COC)c(C#N)c(O)n1`, the GI50 with NCI-H23, with SW-620, with NCI-H522, with CCRF-CEM, in the assay on CAKI-1 and with COLO 205 was > 100 µM (inactive) each time. The GI50 in the assay with ACHN, in the assay with LOX IMVI, with HT-29, in the assay on EKVX, in the assay with SK-OV-3 and in the assay on HL-60 was > 100 µM (inactive) each time. Also, the GI50 in the assay with Malme-3M, in the assay with SF-268, in the assay with K562, in the assay with KM12, with A549 and in the assay with HCC 2998 was > 100 µM (inactive) in each case. For the same compound, the GI50 in the assay on UO-31 and in the assay on NCI-H460 was > 100 µM (inactive) throughout.

Take `CC(C)NC(=O)OCCN=C1c2ccccc2C(Br)C(Br)c2ccccc21` (stereo not given): the GI50 is 15.6 µM (inactive) in the assay with NCI-H23; 3.76 µM (inactive) in the assay on SW-620; 1.68 µM (inactive) with NCI-H522; 0.46 µM (active) with CCRF-CEM; 7.01 µM (inactive) in the assay on CAKI-1; 5.13 µM (inactive) in the assay on COLO 205. The GI50 in the assay on ACHN is 7.6 µM (inactive); with LOX IMVI, 2.94 µM (inactive); in the assay with HT-29, 4.7 µM (inactive); in the assay with EKVX, 9.06 µM (inactive); in the assay on SK-OV-3 it was 26.1 µM (inactive); in the assay with HL-60, 1.05 µM (active). The GI50 in the assay with Malme-3M was 5.4 µM (inactive); with SF-268 it was 14.4 µM (inactive); in the assay on K562 it was 1.06 µM (active); with KM12, 21.8 µM (inactive); in the assay with A549, 24.7 µM (inactive); in the assay with HCC 2998, 22.7 µM (inactive). The GI50 with UO-31 was 4.21 µM (inactive); in the assay on NCI-H460, 10.4 µM (inactive).

As to `NC1=CN(Cc2ccccc2)C2=N/C(=C\c3ccccc3)C(=O)N12`, the GI50 with NCI-H23 was > 100 µM (inactive); with SW-620, > 100 µM (inactive); in the assay with NCI-H522 it was 51.3 µM (inactive); in the assay with CCRF-CEM it was 50 µM (inactive); in the assay with CAKI-1 it was > 100 µM (inactive); in the assay with COLO 205, > 100 µM (inactive). Also, the GI50 in the assay with ACHN was > 100 µM (inactive); in the assay on LOX IMVI, > 100 µM (inactive); in the assay with HT-29 it was > 100 µM (inactive); with EKVX, > 100 µM (inactive); in the assay with SK-OV-3 it was > 100 µM (inactive); in the assay with HL-60, 26.1 µM (inactive). The GI50 with Malme-3M was > 100 µM (inactive); in the assay on SF-268, > 100 µM (inactive); in the assay on K562 it was 48.8 µM (inactive); with KM12 it was 96.8 µM (inactive); in the assay on A549 it was > 100 µM (inactive); with HCC 2998, > 100 µM (inactive). In addition, the results for the GI50 in the assay with UO-31 and with NCI-H460 were 65.9 µM (inactive) and > 100 µM (inactive), respectively.

With `O=c1c2ccccc2c2c1c1c3ccccc3c(=O)c1c1c3ccccc3c(=O)c21`, the GI50 in the assay on NCI-H23, in the assay with SW-620, with NCI-H522, with CCRF-CEM, in the assay on CAKI-1 and with COLO 205 was > 100 µM (inactive) in each case. In addition, the GI50 in the assay with ACHN, in the assay with LOX IMVI, with HT-29, with EKVX, in the assay with SK-OV-3 and in the assay with HL-60 was > 100 µM (inactive) throughout. Also, the GI50 with Malme-3M, in the assay with SF-268, in the assay with K562, in the assay on KM12, in the assay on A549 and in the assay on HCC 2998 was > 100 µM (inactive) each time. The GI50 with UO-31 and in the assay on NCI-H460 was > 100 µM (inactive) each time.

Take `COc1ccc(CCNC2=CC(=O)c3ncccc3C2=O)cc1OC`: the GI50 in the assay on NCI-H23 was 0.346 µM (active); in the assay on SW-620, 1.68 µM (inactive); in the assay on NCI-H522, 2.11 µM (inactive); in the assay with CCRF-CEM it was 5.9 µM (inactive); with CAKI-1, 1.71 µM (inactive); with COLO 205, 1.79 µM (inactive). Moreover, the GI50 with ACHN was 3.67 µM (inactive); in the assay with LOX IMVI, 0.426 µM (active); in the assay on HT-29 it was 2.12 µM (inactive); in the assay with EKVX it was 5.5 µM (inactive); in the assay on SK-OV-3, 10.2 µM (inactive); in the assay on HL-60, 2.82 µM (inactive). The GI50 in the assay with Malme-3M is 0.682 µM (active); in the assay on SF-268, 5.18 µM (inactive); in the assay on K562, 2.24 µM (inactive); in the assay on KM12, 3.59 µM (inactive); in the assay on A549, 0.918 µM (active); with HCC 2998, 1.94 µM (inactive). In addition, the GI50 in the assay on UO-31 is 0.931 µM (active); in the assay on NCI-H460, 0.394 µM (active).

With `COC(=O)c1ccccc1C1CN=NC12Cc1cccc(C)c1C2=O` (stereo not given), the GI50 in the assay with NCI-H23 is 51.9 µM (inactive); in the assay with SW-620, > 100 µM (inactive); with NCI-H522, 27.3 µM (inactive); with CCRF-CEM it was 52.7 µM (inactive); in the assay with CAKI-1, 46.1 µM (inactive); with COLO 205, > 10 µM (inactive). Besides, the GI50 was 35.3 µM (inactive) in the assay with ACHN; 55 µM (inactive) in the assay with LOX IMVI; 57.7 µM (inactive) in the assay on HT-29; 65.6 µM (inactive) in the assay with EKVX; > 100 µM (inactive) with SK-OV-3; 24.7 µM (inactive) in the assay with HL-60. Moreover, the GI50 in the assay with Malme-3M is 43.7 µM (inactive); in the assay on SF-268, 61.4 µM (inactive); in the assay with K562 it was 53.1 µM (inactive); with KM12, 26.8 µM (inactive); with A549, 39.3 µM (inactive); in the assay on HCC 2998, > 100 µM (inactive). In addition, the GI50 in the assay with UO-31 is 20.8 µM (inactive); in the assay on NCI-H460, 88.1 µM (inactive).

With `CCOC(=O)c1cccc(/N=N/c2ncc(/C=C/C(=O)OC)[nH]2)c1`, the GI50 is 28.2 µM (inactive) in the assay on NCI-H23; 26.5 µM (inactive) in the assay on SW-620; 15.7 µM (inactive) in the assay with NCI-H522; 6 µM (inactive) in the assay with CCRF-CEM; 14.5 µM (inactive) in the assay on CAKI-1; 18.8 µM (inactive) with COLO 205. Moreover, the GI50 is 22 µM (inactive) in the assay with ACHN; 15.3 µM (inactive) with LOX IMVI; 23.5 µM (inactive) in the assay on HT-29; 27.7 µM (inactive) with EKVX; 55.7 µM (inactive) in the assay on SK-OV-3; 5.97 µM (inactive) with HL-60. In addition, the GI50 with Malme-3M is 22.6 µM (inactive); in the assay with SF-268 it was 26.8 µM (inactive); with K562, 20.9 µM (inactive); in the assay with KM12 it was 23.2 µM (inactive); in the assay with A549 it was 24.5 µM (inactive); with HCC 2998 it was 17.9 µM (inactive). Also, the values for the GI50 in the assay with UO-31 and in the assay on NCI-H460 were 18 µM (inactive) and 14.3 µM (inactive), respectively.

Regarding `CS/C(=N\C#N)NC1CC(n2cc(C)c(=O)[nH]c2=O)OC1CO` (stereo not given), the GI50 in the assay on NCI-H23, in the assay with SW-620, with NCI-H522, in the assay on CCRF-CEM, in the assay with CAKI-1 and with COLO 205 was > 100 µM (inactive) each time. For the same compound, the GI50 with ACHN, in the assay with LOX IMVI, in the assay on HT-29, in the assay on EKVX, in the assay with SK-OV-3 and with HL-60 was > 100 µM (inactive) in each case. Moreover, the GI50 in the assay with Malme-3M, in the assay with SF-268, with K562, in the assay with KM12, in the assay with A549 and with HCC 2998 was > 100 µM (inactive) throughout. Further, the GI50 in the assay on UO-31 and with NCI-H460 was > 100 µM (inactive) each time.

Take `O=S(=O)(O)c1ccc([Se][Se]c2ccc(S(=O)(=O)O)cc2)cc1`: the GI50 with NCI-H23 was > 100 µM (inactive); in the assay on SW-620, > 100 µM (inactive); in the assay with NCI-H522, 60.5 µM (inactive); with CCRF-CEM it was > 100 µM (inactive); with CAKI-1 it was > 100 µM (inactive); in the assay on COLO 205 it was > 100 µM (inactive). The GI50 with ACHN, with LOX IMVI, with HT-29, in the assay on EKVX, in the assay with SK-OV-3 and with HL-60 was > 100 µM (inactive) throughout. The GI50 in the assay on Malme-3M, with SF-268, with K562, in the assay with KM12, in the assay with A549 and in the assay with HCC 2998 was > 100 µM (inactive) in each case. In addition, the GI50 in the assay on UO-31 and with NCI-H460 was > 100 µM (inactive) each time.

Turning to `COC(=O)C1C2C=CC(C2)N1[C@@H](C)c1ccccc1` (stereo not given in full), the GI50 with NCI-H23, in the assay on SW-620, in the assay on NCI-H522, in the assay with CCRF-CEM, in the assay with CAKI-1 and in the assay on COLO 205 was > 100 µM (inactive) each time. For the same compound, the GI50 with ACHN, with LOX IMVI, in the assay with HT-29, in the assay on EKVX, in the assay with SK-OV-3 and with HL-60 was > 100 µM (inactive) each time. Further, the GI50 with Malme-3M, with SF-268, with K562, with KM12, in the assay with A549 and in the assay with HCC 2998 was > 100 µM (inactive) in each case. Besides, the GI50 in the assay with UO-31 and in the assay with NCI-H460 was > 100 µM (inactive) in each case.
